Assay results as given in patent publication US11685729B2, “C5a receptor modulators” (IDORSIA PHARMACEUTICALS LTD., priority 2018, dated 2023).

molecular target: C5AR1 (Homo sapiens (Human), UniProt P21730); assay: In vitro assay: PathHunter beta-arrestin antagonist assay in CHO-K1 C5AR1 beta-arrestin cell line, stimulated with C5a agonist; details: not given
Sequence (P21730 whole entry): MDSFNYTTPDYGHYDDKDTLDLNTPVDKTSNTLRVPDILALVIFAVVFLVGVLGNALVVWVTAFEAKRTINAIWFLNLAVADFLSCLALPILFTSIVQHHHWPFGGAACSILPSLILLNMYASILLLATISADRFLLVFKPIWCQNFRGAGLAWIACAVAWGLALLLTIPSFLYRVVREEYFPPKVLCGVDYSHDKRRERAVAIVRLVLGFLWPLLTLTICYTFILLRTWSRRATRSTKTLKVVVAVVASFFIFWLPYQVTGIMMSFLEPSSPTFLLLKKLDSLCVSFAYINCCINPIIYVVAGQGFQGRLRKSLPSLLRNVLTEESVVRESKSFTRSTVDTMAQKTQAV

Row | IC50 | SMILES
1 | 0.059 µM | Cc1cccc(F)c1N1CCC(N2C(=O)N(Cc3ccccc3C(F)(F)F)c3ccccc3C2C)CC1 (single isomer, unassigned) [Example 71, (S)- or (R)-3-[1-(2-Fluoro-6-methyl-phenyl)-piperidin-4-yl]-4-methyl-1-(2-trifluoromethyl-benzyl)-3,4-dihydro-1H-quinazolin-2-one]

same assay, conditions: read-out: C5aR IC50; CHO-K1 C5AR1 beta-arrestin cell line; 1-10 nM C5a agonist; geometric mean values

Row | SMILES | IC50
2 | Cc1cccc(F)c1N1CCC(N2C(=O)N(Cc3ccccc3C(F)(F)F)c3ccccc3C2C)CC1 (racemic) [Example 70, 3-[1-(2-Fluoro-6-methyl-phenyl)-piperidin-4-yl]-4-methyl-1-(2-trifluoromethyl-benzyl)-3,4-dihydro-1H-quinazolin-2-one] | 0.205 µM
3 | COc1ccccc1N1CCC(N2Cc3cccc(OC)c3N(Cc3ccccc3C(F)(F)F)C2=O)CC1 [Example 4, 8-Methoxy-3-[1-(2-methoxy-phenyl)-piperidin-4-yl]-1-(2-trifluoromethyl-benzyl)-3,4-dihydro-1H-quinazolin-2-one] | 0.944 µM
4 | COc1cccc(F)c1N1CCC(N2Cc3cccc(OC)c3N(Cc3ccccc3C(F)(F)F)C2=O)CC1 [Example 5, 3-[1-(2-Fluoro-6-methoxy-phenyl)-piperidin-4-yl]-8-methoxy-1-(2-trifluoromethyl-benzyl)-3,4-dihydro-1H-quinazolin-2-one] | 0.3 µM
5 | COc1ccccc1N1CCC(N2Cc3ccccc3N(Cc3ccccc3C(F)(F)F)C2=O)CC1 [Example 6, 3-[1-(2-Methoxy-phenyl)-piperidin-4-yl]-1-(2-trifluoromethyl-benzyl)-3,4-dihydro-1H-quinazolin-2-one] | 0.245 µM
6 | COc1ccccc1N1CC[C@@H](N2Cc3cccc(OC)c3N(Cc3ccccc3C(F)(F)F)C2=O)C1 [Example 10, 8-Methoxy-3-[(R)-1-(2-methoxy-phenyl)-pyrrolidin-3-yl]-1-(2-trifluoromethyl-benzyl)-3,4-dihydro-1H-quinazolin-2-one] | 1.87 µM
7 | COc1cccc(F)c1N1CC[C@@H](N2Cc3cccc(OC)c3N(Cc3ccccc3C(F)(F)F)C2=O)C1 [Example 11, 3-[(R)-1-(2-Fluoro-6-methoxy-phenyl)-pyrrolidin-3-yl]-8-methoxy-1-(2-trifluoromethyl-benzyl)-3,4-dihydro-1H-quinazolin-2-one] | 0.219 µM
8 | Cn1nc(C2CC2)c(Cl)c1N1CCC(N2Cc3ccccc3N(Cc3ccccc3C(F)(F)F)C2=O)CC1 [Example 12, 3-[1-(4-Chloro-5-cyclopropyl-2-methyl-2H-pyrazol-3-yl)-piperidin-4-yl]-1-(2-trifluoromethyl-benzyl)-3,4-dihydro-1H-quinazolin-2-one] | 0.679 µM
9 | Cc1cccc(C)c1N1CC[C@H](N2Cc3ccccc3N(Cc3ccccc3C(F)(F)F)C2=O)C1 [Example 14, 3-[(S)-1-(2,6-Dimethyl-phenyl)-pyrrolidin-3-yl]-1-(2-trifluoromethyl-benzyl)-3,4-dihydro-1H-quinazolin-2-one] | 0.627 µM
10 | O=C1N(Cc2ccccc2C(F)(F)F)c2ccccc2CN1[C@H]1CCN(c2c(F)cccc2F)C1 [Example 15, 3-[(S)-1-(2,6-Difluoro-phenyl)-pyrrolidin-3-yl]-1-(2-trifluoromethyl-benzyl)-3,4-dihydro-1H-quinazolin-2-one] | 0.847 µM
11 | COc1ccccc1N1CC[C@H](N2Cc3ccccc3N(Cc3ccccc3C(F)(F)F)C2=O)C1 [Example 16, 3-[(S)-1-(2-Methoxy-phenyl)-pyrrolidin-3-yl]-1-(2-trifluoromethyl-benzyl)-3,4-dihydro-1H-quinazolin-2-one] | 0.635 µM
12 | COc1cccc(F)c1N1CC[C@H](N2Cc3ccccc3N(Cc3ccccc3C(F)(F)F)C2=O)C1 [Example 17, 3-[(S)-1-(2-Fluoro-6-methoxy-phenyl)-pyrrolidin-3-yl]-1-(2-trifluoromethyl-benzyl)-3,4-dihydro-1H-quinazolin-2-one] | 0.437 µM
13 | COc1ccccc1N1CC[C@@H](N2Cc3ccccc3N(Cc3ccccc3C(F)(F)F)C2=O)C1 [Example 20, 3-[(R)-1-(2-Methoxy-phenyl)-pyrrolidin-3-yl]-1-(2-trifluoromethyl-benzyl)-3,4-dihydro-1H-quinazolin-2-one] | 0.181 µM
14 | COc1cccc(OC)c1N1CC[C@@H](N2Cc3cccc(OC)c3N(Cc3ccccc3C(F)(F)F)C2=O)C1 [Example 24, 3-[(R)-1-(2,6-Dimethoxy-phenyl)-pyrrolidin-3-yl]-8-methoxy-1-(2-trifluoromethyl-benzyl)-3,4-dihydro-1H-quinazolin-2-one] | 0.383 µM
15 | COc1cccc(C)c1N1CCC(N2Cc3cccc(OC)c3N(Cc3ccccc3C(F)(F)F)C2=O)CC1 [Example 25, 8-Methoxy-3-[1-(2-methoxy-6-methyl-phenyl)-piperidin-4-yl]-1-(2-trifluoromethyl-benzyl)-3,4-dihydro-1H-quinazolin-2-one] | 0.497 µM
16 | Cc1ccnc(C)c1N1CCC(N2Cc3ccccc3N(Cc3ccccc3C(F)(F)F)C2=O)CC1 [Example 28, 3-(2′,4′-Dimethyl-3,4,5,6-tetrahydro-2H-[1,3′]bipyridinyl-4-yl)-1-(2-trifluoromethyl-benzyl)-3,4-dihydro-1H-quinazolin-2-one] | 0.287 µM
17 | Cc1ccnc(C)c1N1CC[C@@H](N2Cc3ccccc3N(Cc3ccccc3C(F)(F)F)C2=O)C1 [Example 32, 3-[(R)-1-(2,4-Dimethyl-pyridin-3-yl)-pyrrolidin-3-yl]-1-(2-trifluoromethyl-benzyl)-3,4-dihydro-1H-quinazolin-2-one] | 0.28 µM
18 | COc1ccccc1CN1C(=O)N([C@@H]2CCN(c3c(C)cccc3C)C2)Cc2ccccc21 [Example 34, 3-[(R)-1-(2,6-Dimethyl-phenyl)-pyrrolidin-3-yl]-1-(2-methoxy-benzyl)-3,4-dihydro-1H-quinazolin-2-one] | 0.116 µM

Continued, values first:

Row | IC50 | SMILES
19 | 0.104 µM | COc1cccc2c1N(Cc1ccccc1C(F)(F)F)C(=O)N([C@@H]1CCN(c3c(F)cccc3F)C1)C2 [Example 8, 3-[(R)-1-(2,6-Difluoro-phenyl)-pyrrolidin-3-yl]-8-methoxy-1-(2-trifluoromethyl-benzyl)-3,4-dihydro-1H-quinazolin-2-one]
20 | 0.058 µM | COc1cccc(F)c1N1CCC(N2Cc3ccccc3N(Cc3ccccc3C(F)(F)F)C2=O)CC1 [Example 7, 3-[1-(2-Fluoro-6-methoxy-phenyl)-piperidin-4-yl]-1-(2-trifluoromethyl-benzyl)-3,4-dihydro-1H-quinazolin-2-one]
21 | 0.053 µM | O=C1N(Cc2ccccc2C(F)(F)F)c2ccccc2CN1[C@@H]1CCN(c2c(F)cccc2F)C1 [Example 19, 3-[(R)-1-(2,6-Difluoro-phenyl)-pyrrolidin-3-yl]-1-(2-trifluoromethyl-benzyl)-3,4-dihydro-1H-quinazolin-2-one]
22 | 0.052 µM | COc1cccc(C)c1N1CC[C@@H](N2Cc3cccc(OC)c3N(Cc3ccccc3C(F)(F)F)C2=O)C1 [Example 22, 8-Methoxy-3-[(R)-1-(2-methoxy-6-methyl-phenyl)-pyrrolidin-3-yl]-1-(2-trifluoromethyl-benzyl)-3,4-dihydro-1H-quinazolin-2-one]
23 | 0.045 µM | Cc1ccnc(F)c1N1CCC(N2Cc3ccccc3N(Cc3ccccc3C(F)(F)F)C2=O)CC1 [Example 30, 3-(2′-Fluoro-4′-methyl-3,4,5,6-tetrahydro-2H-[1,3′]bipyridinyl-4-yl)-1-(2-trifluoromethyl-benzyl)-3,4-dihydro-1H-quinazolin-2-one]
24 | 0.043 µM | Cc1ccnc(F)c1N1CC[C@@H](N2Cc3ccccc3N(Cc3ccccc3C(F)(F)F)C2=O)C1 [Example 33, 3-[(R)-1-(2-Fluoro-4-methyl-pyridin-3-yl)-pyrrolidin-3-yl]-1-(2-trifluoromethyl-benzyl)-3,4-dihydro-1H-quinazolin-2-one]
25 | 0.037 µM | COc1cccc(F)c1N1CC[C@@H](N2Cc3ccccc3N(Cc3ccccc3C(F)(F)F)C2=O)C1 [Example 21, 3-[(R)-1-(2-Fluoro-6-methoxy-phenyl)-pyrrolidin-3-yl]-1-(2-trifluoromethyl-benzyl)-3,4-dihydro-1H-quinazolin-2-one]
26 | 0.037 µM | COc1cccc(C)c1N1CC[C@@H](N2Cc3ccccc3N(Cc3ccccc3C(F)(F)F)C2=O)C1 [Example 27, 3-[(R)-1-(2-Methoxy-6-methyl-phenyl)-pyrrolidin-3-yl]-1-(2-trifluoromethyl-benzyl)-3,4-dihydro-1H-quinazolin-2-one]
27 | 0.037 µM | COc1nccc(C)c1N1CC[C@@H](N2Cc3ccccc3N(Cc3ccccc3C(F)(F)F)C2=O)C1 [Example 31, 3-[(R)-1-(2-Methoxy-4-methyl-pyridin-3-yl)-pyrrolidin-3-yl]-1-(2-trifluoromethyl-benzyl)-3,4-dihydro-1H-quinazolin-2-one]
28 | 0.035 µM | Cc1cccc(F)c1N1CC[C@@H](N2Cc3ccccc3N(Cc3ccccc3C(F)(F)F)C2=O)C1 [Example 26, 3-[(R)-1-(2-Fluoro-6-methyl-phenyl)-pyrrolidin-3-yl]-1-(2-trifluoromethyl-benzyl)-3,4-dihydro-1H-quinazolin-2-one]
29 | 0.035 µM | COc1nccc(C)c1N1CCC(N2Cc3ccccc3N(Cc3ccccc3C(F)(F)F)C2=O)CC1 [Example 29, 3-(2′-Methoxy-4′-methyl-3,4,5,6-tetrahydro-2H-[1,3′]bipyridinyl-4-yl)-1-(2-trifluoromethyl-benzyl)-3,4-dihydro-1H-quinazolin-2-one]
30 | 0.032 µM | COc1cccc(C)c1N1CCC(N2Cc3ccccc3N(Cc3ccccc3C(F)(F)F)C2=O)CC1 [Example 23, 3-[1-(2-Methoxy-6-methyl-phenyl)-piperidin-4-yl]-1-(2-trifluoromethyl-benzyl)-3,4-dihydro-1H-quinazolin-2-one]
31 | 0.028 µM | Cc1cccc(C)c1N1CC[C@@H](N2Cc3ccccc3N(Cc3ccccc3C(F)(F)F)C2=O)C1 [Example 18, 3-[(R)-1-(2,6-Dimethyl-phenyl)-pyrrolidin-3-yl]-1-(2-trifluoromethyl-benzyl)-3,4-dihydro-1H-quinazolin-2-one]
32 | 0.025 µM | COc1cccc2c1N(Cc1ccccc1C(F)(F)F)C(=O)N([C@@H]1CCN(c3c(C)cccc3C)C1)C2 [Example 9, 3-[(R)-1-(2,6-Dimethyl-phenyl)-pyrrolidin-3-yl]-8-methoxy-1-(2-trifluoromethyl-benzyl)-3,4-dihydro-1H-quinazolin-2-one]
